Reference: US9056087B2, “Methods of healing or preventing inflammation, damage and other changes that occur prior to, during or immediately after a myocardial event with thymosin beta 4, analogues, isoforms and other derivatives” (REGENERX BIOPHARMACEUTICALS, INC., priority 2001, dated 2015)

System: cardiac endothelial cells
Experiment: collagen gel assay: transformation of cardiac endothelial cells to mesenchymal cells
Type: cell-based
Details: at physiological concentrations (Tβ4)
Experimental: Synthetic Tβ4 and an antibody to Tβ4 was provided by RegeneRx Biopharmaceuticals, Inc. (3 Bethesda Metro Center, Suite 700, Bethesda, Md. 20814) and were tested in a collagen gel assay to determine their effects on the Transformation of cardiac endothelial cells to mesenchymal cells. It is Well established that development of heart valves and other cardiac tissue are formed by epithelial-mesenchymal transformation and that defects in this process can cause serious cardiovascular malformation and injury during development and throughout life. […] Transformation of atrioventricular endocardium into invasive mesenchyme is critical in the formation and maintenance of normal cardiac tissue and in the formation of heart valves.

Substance: Thymosin β4 (SDKPDMAEIEKFDKSKLKKTETQEKNPLPSKETIEQEKQAGES; not fully specified; Thymosin beta-4; UniProt P62328 2-44, looked up) [Tβ4, synthetic Tβ4 provided by RegeneRx]
- effect on the transformation of endocardial cells to mesenchymal cells in the collagen gel assay: markedly enhances the transformation
